Source: patent publication US20250263408A1 (Uniquest Pty Ltd, priority 2022, published 2025)

Tests used:
Ba/F3-Syk cells = target: T1, Ba/F3-Syk cells (Homo sapiens, UniProt P43405); experiment: Ba/F3 Proliferation Assay, Ba/F3-Syk cells (Resazurin); type: cell-based; settings: 48-hour incubation
T1 construct: fused on or other part: Possible but unprinted fusion partner: TEL (ETV6), the usual partner for Ba/F3 lines transformed by Syk; Nothing on a partner is printed
Experimental: (§1) Ba/F3-Syk and Ba/F3-WT (wild type) cells were maintained at ≤1×10^6 cell/mL in RPMI (Life Technologies) with 10% FBS at 37° C. and 5% CO2 for a maximum of four weeks. Ba/F3-WT additionally contained 2 ng/mL mIL-3 (R&D Systems) to induce cellular growth. Cells were counted and dispensed at 5000 cells/well using a Multidrop Liquid Dispenser in a volume of 45 μL into black 384-well TC treated plates (Greiner) and incubated for four hours in complete media (+mIL-3 for Ba/F3-WT). Compounds were serially diluted in 100% DMSO, prior to an intermediate dilution in RPMI media. 5 μL of compound (0.4% final DMSO) was added to the cells, followed by a 48-hour incubation period. 5 μL of Resazurin (60 μM final) was then added and cells were incubated at 37° C. for three hours, before fluorescence (λex530/λem585) was measured using an Ensight Multimode Plate Reader (Perkin Elmer).

[1] = test system: Ba/F3-WT (wild type) cells; experiment: Ba/F3 Proliferation Assay, Ba/F3-WT (wild type) cells with mIL-3 (Resazurin); type: cell-based; settings: Ba/F3-WT cells +mIL-3, 48-hour incubation
Experimental: as §1

Compound: 5-{[(2R)-6,6-dimethylmorpholin-2-yllmethoxy}-7-[1-(3-methyloxolan-3-yl)-1H-pyrazol-4-yl]-1,6-naphthyridine [Compound 10.13]
- EC50 (Ba/F3-Syk cells): 90.9 nM
- EC50 [1]: 3210 nM

Compound: 7-(1-methyl-1H-pyrrol~3-yl)-5-{[(2S)-2-methylmorpholin-2-yl]methoxy}-1,6-naphthyridine [Compound 10.7]
- EC50 (Ba/F3-Syk cells): 274 nM
- EC50 [1]: 1200 nM

Compound: 7-(1-tert-butyl-1H-pyrazol-4-yl)-5-{[(2R)-2-ethylmorpholin-2-yl]methoxy}-1,6-naphthyridine [Compound 10.15]
- EC50 (Ba/F3-Syk cells): 92.2 nM
- EC50 [1]: 1680 nM

Compound: Cn1cc(-c2cc3ncccc3c(OC[C@@H]3CN[C@H]4CCC[C@H]4O3)n2)cn1 (racemic) [Compound 2.53, 5-{[rel-(2R,4aR,7aS)-octahydrocyclopenta[b][1,4]oxazin-2-yl]methoxy}-7-(1-methyl-1H-pyrazol-4-yl)-1,6-naphthyridine]
- EC50 (Ba/F3-Syk cells): 129 nM
- EC50 ([1]; Mus musculus, BaF3, 48 h): 2560 nM

Compound: C[C@@H]1O[C@@H](COc2nc(-c3cnn(C(C)(C)C)c3)cc3ncccc23)CN[C@@H]1C (racemic) [Compound 2.80, 7-(1-tert-butyl-1H-pyrazol-4-yl)-5-{[rel-(2S,5S,6R)-5,6-dimethylmorpholin-2-yl]methoxy}-1,6-naphthyridine]
- EC50 (Ba/F3-Syk cells): 36 nM
- EC50 ([1]; Mus musculus, BaF3, 48 h): 1600 nM

Compound: Cn1cc(-c2cc3ncccc3c(OC[C@@H]3CN[C@@H]4CCC[C@@H]4O3)n2)cn1 (relative stereo) [Compound 2.54, 5-{[rel-(2S,4aR,7aS)-octahydrocyclopenta[b][1,4]oxazin-2-yl]methoxy}-7-(1-methyl-1H-pyrazol-4-yl)-1,6-naphthyridine]
- EC50 (Ba/F3-Syk cells): 288 nM
- EC50 ([1]; Mus musculus, BaF3, 48 h): 1580 nM

Compound: Cn1ccc(-c2cc3ncccc3c(OC[C@@H]3CN[C@@H]4C[C@@H]4O3)n2)c1 (relative stereo) [Compound 2.71, 7-(1-methyl-1H-pyrrol-3-yl)-5-{[(rel-1S,3S,6R)-2-oxa-5-azabicyclo[4.1.0]heptan-3-yl]methoxy}-1,6-naphthyridine]
- EC50 (Ba/F3-Syk cells): 1330 nM
- EC50 ([1]; Mus musculus, BaF3, 48 h): > 10000 nM

Compound: C[C@@H]1O[C@H](COc2nc(-c3cnn(C(C)(C)C)c3)cc3ncccc23)CN[C@@H]1C (relative stereo) [Compound 2.81, 7-(1-tert-butyl-1H-pyrazol-4-yl)-5-{[rel-(2S,5R,6S)-5,6-dimethylmorpholin-2-yl]methoxy}-1,6-naphthyridine]
- EC50 (Ba/F3-Syk cells): 73.2 nM
- EC50 ([1]; Mus musculus, BaF3, 48 h): 2070 nM

Compound: CC(C)(C)n1cc(-c2cc3ncccc3c(OC[C@@H]3CN[C@H]4CCC[C@H]4O3)n2)cn1 (relative stereo) [Compound 2.85, 5-{[rel-(2S,4aS,7aR)-octahydrocyclopenta[b][1,4]oxazin-2-yl]methoxy}-7-(1-tert-butyl-1H-pyrazol-4-yl)-1,6-naphthyridine]
- EC50 (Ba/F3-Syk cells): 59.3 nM

Compound: CC(C)(C)n1cc(-c2cc3ncccc3c(O[C@@H]3CC[C@@H]4NCCO[C@@H]43)n2)cn1 (relative stereo) [Compound 2.90, 5-[rel-(4aS,7R,7aS)-octahydrocyclopenta[b][1,4]oxazin-7-yloxy]-7-(1-tert-butyl-1H-pyrazol-4-yl)-1,6-naphthyridine]
- EC50 (Ba/F3-Syk cells): 54.6 nM
- EC50 ([1]; Mus musculus, BaF3, 48 h): > 1000 nM

Compound: CC(C)(C)n1cc(-c2cc3ncccc3c(O[C@H]3CC[C@@H]4NCCO[C@@H]43)n2)cn1 (relative stereo) [Compound 2.91, 5-[rel-(4aS,7S,7aS)-octahydrocyclopenta[b][1,4]oxazin-7-yloxy]-7-(1-tert-butyl-1H-pyrazol-4-yl)-1,6-naphthyridine]
- EC50 (Ba/F3-Syk cells): 51.8 nM
- EC50 ([1]; Mus musculus, BaF3, 48 h): 1040 nM

Compound: CC(C)(C)n1cc(-c2cc3ncccc3c(OC[C@@H]3CN[C@H]4CCC[C@H]4O3)n2)cn1 (stereo in doubt) [Compound 2.94, 5-{[(2S,4aS,7aR)-octahydrocyclopenta[b][1,4]oxazin-2-yl]methoxy}-7-(1-tert-butyl-1H-pyrazol-4-yl)-1,6-naphthyridine]
- EC50 (Ba/F3-Syk cells): 145 nM
